Source: patent US8552011B2, “6-(C2-6alkylseleno)purines and methods for treating neural measles viral infection therewith” (priority 2008, dated 2013)

How the values were obtained:
HeLa cells [1] = test: MTT tetrazole reduction assay, acute toxicity; type: cell-based, human; conditions: 24 h incubation, 65, 10, 1, 0.1, 0.01, 0.001 ng/ml, 0.1% DMSO
Source text: (§1) Cells and cell culture: HeLa cells (human cervical carcinoma) were used for these studies. Cells were maintained in DMEM medium supplemented with 10% fetal calf serum (FCS) and antibiotics in a humidified, 5% CO2 environment. Cells were passaged as required by trypsinization.
(§2) Evaluation of toxicity: Acute toxicity was quantified using a standard tetrazole reduction assay as a measure of cell proliferation/viability. Briefly, quadruplicate wells of HeLa cells (1×10^4 cells, 96-well plates) were incubated for 24 h with the ESP or DMSO as a control and the reduction of tetrazolium salt (MTT) to purple formazan by mitochondrial reductases enzymes in viable cells detected as a change in absorbance (λ=500-600 nm). Overt cytotoxicity was also evaluated qualitatively by microscopic analysis over longer exposure periods during the antiviral tests. Toxicity was considered to be evident if cell injury or loss was observed or a reduction in MTT activity of greater than twenty-five percent relative to controls was detected.
(1)—Evaluation of acute toxicity: ESP was assessed by MTT assay as described above using a series of dilutions (w/v): 65, 10, 1, 0.1, 0.01, 0.001 and 0 ng/ml. […] Toxicity was evaluated over a 24 h incubation period, a time period that corresponded to the pre-treatment phase of the anti-viral testing protocol.

[2] = tested on: measles virus strain Halle (MV-H); test: Anti-viral screening, syncytia formation in infected HeLa cells; type: cell-based; conditions: for reduction of syncytia formation: MV-H infected HeLa cells
Experimental: (§3) Viruses: Two strains of measles virus (MV) were evaluated in this study: 1) strain Edmonston (MV-E), the prototypical lab-adapted strain originally derived from the blood of a human patient in the acute phase of a typical infection, and 2) strain Halle (MV-H), a neurovirulent strain derived from a lymph node biopsy of a human patient with subacute sclerosing panencephalitis. One strain of herpes simplex virus (HSV) was evaluated: HSV-2 (strain G). This strain is a primary isolate derived from an active genital infection.
(§4) Infection conditions: Cells (4×10^4 cells/well) were seeded in 24-well culture plates and pre-treated with ESP for 24 hr prior to infection. Cells were incubated with 100 μl of MV at the indicated MOI for 1 h at 37° C. before conditioned media containing the test compound and 5% FCS was replaced for the assay duration. MV replication was evaluated daily by microscopic analysis until cells were stained with 0.1% cresyl violet dye and scored for cytopathic effects. Similar conditions were employed for HSV-2 with the exception that infections were performed at 35° C. over a test period of 72 h.

[3] = tested on: measles virus strain Edmonston (MV-E); test: as above; type: cell-based
Experimental: as §3, §4

HeLa cells [4] = test: Overt cytotoxicity by microscopic analysis during the antiviral tests; type: cell-based, human; conditions: for toxic effects: by 72 h PI
Source text: as §1, §2, §4

HSV-2 (strain G) = test: Anti-HSV screening, plaque formation in infected HeLa cells; type: cell-based, herpes simplex virus; conditions: HSV-2, MOI 1, 0.1, 0.01, ESP 1, 0.5, 0.25, 0.1 μg/ml, 72 h
Experimental: as §3, §4
(4)—Anti-HSV screening: ESP was evaluated at 1, 0.5. 0.25, 0.1 and 0 μg/ml against HSV-2 at MOI=I, 0.1 and 0.01.

## CC[Se]c1ncnc2[nH]cnc12 [ESP]
HeLa cells [1]
  acute toxicity (MTT assay): toxicity was not observed
[2]; 0.1 μg/ml ESP
  reduction of syncytia formation: 25%
[2]; 1 μg/ml ESP
  reduction of syncytia formation: 66%
[2]; preliminary screening, MV-H, MOI 1.0, 0.1, 0.01, Day 5 PI
  syncytia formation, treated vs vehicle controls: a decrease in syncytia formulation was evident
[3]; anti-MV screening, MOI 1.0, 0.1, 0.01, ESP 5-0.1 ng/ml as printed
  syncytia formation vs untreated controls: did not significantly decrease syncytia formation
[3]; preliminary screening, MOI 1.0, 0.1, 0.01, Day 5 PI
  syncytia formation, treated vs untreated wells: syncytia formation did not differ between treated and untreated wells
HeLa cells [4]
  concentration usable in the absence of toxic effects: ≤ 1000 ng/mL
HeLa cells [4]; 2.5 μg/ml
  toxic effects: toxic effects were observed
HeLa cells [4]; 5 μg/ml
  toxic effects: toxic effects were observed
HeLa cells [4]; 10 μg/ml, 72 h post-infection
  overt cytotoxicity: overt cytotoxicity was observed
HeLa cells [4]; 65 μg/ml, 24 h post-infection
  overt cytotoxicity: overt cytotoxicity was observed
HeLa cells [4]; 24 h pre-treatment before infection, 65-0.01 μg/ml
  toxicity during pre-treatment phase: no toxicity was evident
HeLa cells [4]; concentrations less than or equal to 1 μg/ml, time-frames approaching one week
  toxicity: No toxicity was observed
HSV-2 (strain G)
  viral replication as evidenced by plaque formation, vs vehicle controls: No difference in viral replication
